Assay results: patent US20170027958A1, “FULVESTRANT COMPOSITIONS” (THEMIS MEDICARE LIMITED, priority 2013, published 2017)
Where two headings read alike, the source gives them in different places.

Test: Solubility studies of fulvestrant in solvents, co-solvents, oils and release rate modifiers
Format: physicochemical
Conditions: for solubility: read-out: Fulvestrant solubility achieved
Method: Solubility studies of fulvestrant were performed using various combinations of solvent, co-solvents, oils and release rate modifiers. The resultant data are shown herein below Table 1.

C[C@]12CC[C@@H]3c4ccc(O)cc4C[C@@H](CCCCCCCCC[S+]([O-])CCCC(F)(F)C(F)(F)F)[C@H]3[C@@H]1CC[C@@H]2O (stereo partly drawn) [Fulvestrant, 7-alpha-[9-[(4,4,5,5,5-pentafluoropentyl)sulfinyl]nonyl]estra-1,3,5(10)-triene-3,17-beta-diol]
Fulvestrant solubility achieved (Benzyl alcohol (4 v/v %):Diethylene glycol monoethyl ether (q.s. to 1.7 mL)): 300 mg/1.7 mL
solubility (Benzyl alcohol (10 v/v %):Castor oil (50 v/v %):Diethylene glycol monoethyl ether (q.s. to 1 mL)): 151 mg/mL
solubility (benzyl alcohol / diethylene glycol monoethyl ether mixture, Benzyl alcohol (2 v/v %):Diethylene glycol monoethyl ether (q.s. to 1 mL)): 200 mg/mL
